Experimental data published in patent publication US12421210B2, “Fused bicyclic heterocycles as therapeutic agents” (NEW YORK UNIVERSITY, priority 2018, dated 2025).
Read-outs that look alike come from different tables or passages of the source.

Biological target: human NAMPT enzyme (His-hNAMPT) (Homo sapiens (Human), UniProt P43490)
Assay: NAMPT enzymatic inhibition assay (fluorescence, NADH product)
Format: biochemical
Experimental: The compounds were then diluted 20 fold in an intermediate dilution to 5% DMSO and water. Finally 10 μL of each compound was added to the assay plate, in duplicate, with highest concentration at 30 μM and the lowest at 0.001 μM in a final volume of 50 μL and 1% DMSO concentration. Each assay also tested, in parallel, two reference compounds, FK866 and GMX1778, with highest concentration at 10 μM and lowest at 0.0003 μM. 200 ng of human NAMPT enzyme (His-hNAMPT obtained from E. coli expression system) diluted in […] (tris-buffered saline-Polysorbate 20) 1× was added to each well in a volume of 10 μL and the compounds were incubated with the enzyme at room temperature for 20 minutes. After the incubation, 30 μL of master mixture were added to each well. The master mixture contained: 50 mM Tris-HCl, pH 8.0, 12.5 mM MgCl2, 20 μM nicotinamide, 40 μM phosphoribosyl pyrophosphate (PRPP), 20 μM adenosine triphosphate (ATP), 30 μg/mL of alcohol dehydrogenase, 10 μg/mL of NMNAT, 1.5% alcohol, 1 mM dithiothreitol (DTT), 0.02% bovine serum albumin (BSA), 0.01% Tween 20. The reaction was performed at 30° C. for 60 minutes. Fluorescence intensity was measured at an excitation of 340 nm and an emission of 460 nm using a Tecan Infinite M1000 microplate reader. The fluorescence values indicated increase of NADH product.
Enzyme activity assay was performed in duplicate at each concentration. The fluorescence data was analyzed and compared. In the absence of the compound, the intensity (Ce) in each data set was defined as 100% activity. In the absence of enzyme, the intensity (C0) in each data set was defined as 0% activity. The percent activity in the presence of each compound was calculated according to the following equation: % activity=(C−C0)/(Ce−C0), where C is the fluorescence in the presence of the compound.
The % activity vs. compound concentrations were then plotted using non-linear regression analysis of Sigmoidal dose-response curve generated with the equation Y=B+(T−B)/1+10^((Log EC50-X)×Hill Slope), where Y is percent activity, B is minimum percent activity, T is maximum percent activity, X is logarithm of compound and Hill Slope=slope factor or Hill coefficient.

[1] = [HDB], read-out: NAMPT IC50 (μM) [HDB]
[2] = [BPS], read-out: NAMPT IC50 (μM) [BPS]

Sequence of human NAMPT enzyme (His-hNAMPT) (P43490 whole entry): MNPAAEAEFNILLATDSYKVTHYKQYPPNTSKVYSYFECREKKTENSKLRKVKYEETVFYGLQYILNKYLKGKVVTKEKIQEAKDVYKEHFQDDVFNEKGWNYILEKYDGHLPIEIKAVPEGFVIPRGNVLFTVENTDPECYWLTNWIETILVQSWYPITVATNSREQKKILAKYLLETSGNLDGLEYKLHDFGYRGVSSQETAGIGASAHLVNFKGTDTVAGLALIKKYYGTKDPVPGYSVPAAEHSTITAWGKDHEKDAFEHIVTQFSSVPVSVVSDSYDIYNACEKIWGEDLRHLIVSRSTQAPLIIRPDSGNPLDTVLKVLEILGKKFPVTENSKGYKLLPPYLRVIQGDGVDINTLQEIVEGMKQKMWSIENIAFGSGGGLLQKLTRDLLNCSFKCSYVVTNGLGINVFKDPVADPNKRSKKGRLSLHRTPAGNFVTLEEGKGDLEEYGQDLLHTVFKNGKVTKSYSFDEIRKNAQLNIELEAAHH

SMILES	IC50 [1]	IC50 [2]
O=C(/C=C/c1cccnc1)NCC[C@@H]1[C@H]2CN(c3cccnc3)C[C@@H]12 [Example 149, (E)-3-(pyridin-3-yl)-N-(2-((1R,5S,6s)-3-(pyridin-3-yl)-3-azabicyclo[3.1.0]hexan-6-yl)ethyl)acrylamide]	0.01 to 0.49 µM	
Nc1ccc(/C=C/C(=O)NCC[C@@H]2[C@H]3CN(C(=O)c4ccc(F)cc4)C[C@@H]23)cn1 [Example 86, (E)-3-(6-aminopyridin-3-yl)-N-(2-((1R,5S,6s)-3-(4-fluorobenzoyl)-3-azabicyclo[3.1.0]hexan-6-yl)ethyl)acrylamide]		0.01 to 0.49 µM
Nc1ccc(/C=C/C(=O)NCC[C@@H]2[C@H]3CN(S(=O)(=O)c4ccccc4)C[C@@H]23)cn1 [Example 45, (E)-3-(6-aminopyrdiin-3-yl)-N-(2-((1R,5S,6s)-3-(phenylsulfonyl)-3-azabicyclo[3.1.0]hexan-6-yl)ethyl)acrylamide]		0.01 to 0.49 µM
O=C(/C=C/c1cccnc1)NCC[C@@H]1[C@H]2CN(c3ccnc(Cl)c3)C[C@@H]12 [Example 160, (E)-N-(2-((1R,5S,6s)-3-(2-chloropyridin-4-yl)-3-azabicyclo[3.1.0]hexan-6-yl)ethyl)-3-(pyridin-3-yl)acrylamide]	< 0.01 µM	
NC(=O)c1cccc(N2C[C@@H]3[C@@H](CCNC(=O)/C=C/c4cccnc4)[C@@H]3C2)c1 [Example 183, 3-((1R,5S,6s)-6-(2-((E)-3-(pyridin-3-yl)acrylamido)ethyl)-3-azabicyclo[3.1.0]hexan-3-yl)benzamide]	0.01 to 0.49 µM	
CC1(OC(=O)N2C[C@@H]3[C@@H](CCNC(=O)c4nc5ccncc5s4)[C@@H]3C2)COC1 [Example 62, (1R,5S,6s)-3-methyloxetan-3-yl 6-(2-(thiazolo[5,4-c]pyridine-2-carboxamido)ethyl)-3-azabicyclo[3.1.0]hexane-3-carboxylate]		1 to 29 µM
CC(C)(C)OC(=O)N1C[C@@H]2[C@@H](CCNC(=O)N3Cc4ccncc4C3)[C@@H]2C1 [Example 20, (1R,5S,6s)-tert-butyl 6-(2-(2,3-dihydro-1H-pyrrolo[3,4-c]pyridine-2-carboxamido)ethyl)-3-azabicyclo[3.1.0]hexane-3-carboxylate]		0.01 to 0.49 µM
CC(C)(C)OC(=O)N1C[C@@H]2[C@@H](CCNC(=O)/C=C/c3ccc(N)nc3)[C@@H]2C1 [Example 4, (1R,5S,6s)-tert-butyl 6-(2-((E)-3-(6-aminopyridin-3-yl)acrylamido)ethyl)-3-azabicyclo[3.1.0]hexane-3-carboxylate]		0.01 to 0.49 µM
Cc1cccc(C)c1N1C[C@@H]2[C@@H](CCNC(=O)/C=C/c3cccnc3)[C@@H]2C1 [Example 133, (E)-N-(2-((1R,5S,6s)-3-(2,6-dimethylphenyl)-3-azabicyclo[3.1.0]hexan-6-yl)ethyl)-3-(pyridin-3-yl)acrylamide]		0.01 to 0.49 µM
CC(C)(C)NC(=O)N1C[C@@H]2[C@@H](CCNC(=O)c3cnc4nccn4c3)[C@@H]2C1 [Example 77, N-(2-((1R,5S,6s)-3-(tert-butylcarbamoyl)-3-azabicyclo[3.1.0]hexan-6-yl)ethyl)imidazo[1,2-a]pyrimidine-6-carboxamide]		0.01 to 0.49 µM
O=C(/C=C/c1cccnc1)NCC[C@@H]1[C@H]2CN(C(=O)CC3CCOCC3)C[C@@H]12 [Example 104]		0.01 to 0.49 µM
O=C(/C=C/c1cccnc1)NCC[C@@H]1[C@H]2CN(c3ccc4c(c3)C(=O)NC4)C[C@@H]12 [Example 156, (E)-N-(2-((1R,5S,6s)-3-(3-oxoisoindolin-5-yl)-3-azabicyclo[3.1.0]hexan-6-yl)ethyl)-3-(pyridin-3-yl)acrylamide]	0.01 to 0.49 µM	
CC(C)(C)NC(=O)N1C[C@@H]2[C@@H](CCNC(=O)c3cc4ccncc4o3)[C@@H]2C1 [Example 56, N-(2-((1R,5S,6s)-3-(tert-butylcarbamoyl)-3-azabicyclo[3.1.0]hexan-6-yl)ethyl)furo[2,3-c]pyridine-2-carboxamide]		0.01 to 0.49 µM
CC(C)(C)CNC(=O)N1C[C@@H]2[C@@H](CCNC(=O)c3cc4ccncc4o3)[C@@H]2C1 [Example 69, N-(2-((1R,5S,6s)-3-(neopentylcarbamoyl)-3-azabicyclo[3.1.0]hexan-6-yl)ethyl)furo[2,3-c]pyridine-2-carboxamide]		0.5 to 0.99 µM
CC(C)(C)OC(=O)N1C[C@@H]2[C@@H](CCNC(=O)c3cc4cc(N)ncc4s3)[C@@H]2C1 [Example 13, (1R,5S,6s)-tert-butyl 6-(2-(5-aminothieno[2,3-c]pyridine-2-carboxamido)ethyl)-3-azabicyclo[3.1.0]hexane-3-carboxylate]	0.01 to 0.49 µM	
O=C(NCC[C@@H]1[C@H]2CN(S(=O)(=O)C3CCOCC3)C[C@@H]12)c1cc2cnccc2[nH]1 [Example 84, N-(2-((1R,5S,6s)-3-((tetrahydro-2H-pyran-4-yl)sulfonyl)-3-azabicyclo[3.1.0]hexan-6-yl)ethyl)-1H-pyrrolo[3,2-c]pyridine-2-carboxamide]		0.5 to 0.99 µM
Nc1ccc(/C=C/C(=O)NCC[C@@H]2[C@H]3CN(c4nc5ccccc5s4)C[C@@H]23)cn1 [Example 190, (E)-3-(6-aminopyridin-3-yl)-N-(2-((1R,5S,6s)-3-(benzo[d]thiazol-2-yl)-3-azabicyclo[3.1.0]hexan-6-yl)ethyl)acrylamide]		0.01 to 0.49 µM

Now from value to molecule:

IC50 [1]	IC50 [2]	SMILES
< 0.01 µM		Cc1nc2cccc(N3C[C@@H]4[C@@H](CCNC(=O)/C=C/c5cccnc5)[C@@H]4C3)c2o1 [Example 334, (E)-N-(2-((1R,5S,6s)-3-(2-methylbenzo[d]oxazol-7-yl)-3-azabicyclo[3.1.0]hexan-6-yl)ethyl)-3-(pyridin-3-yl)acrylamide]
0.01 to 0.49 µM		CC(c1ccc(F)cc1)N1C[C@@H]2[C@@H](CCNC(=O)/C=C/c3cccnc3)[C@@H]2C1 (stereo partly drawn) [Example 322, (E)-N-(2-((1R,5S,6s)-3-(1-(4-fluorophenyl)ethyl)-3-azabicyclo[3.1.0]hexan-6-yl)ethyl)-3-(pyridin-3-yl)acrylamide]
< 0.01 µM		O=C(/C=C/c1cccnc1)NCC[C@@H]1[C@H]2CN(c3nc(N4CCNC(=O)C4)ncc3F)C[C@@H]12 [Example 333, (E)-N-(2-((1R,5S,6s)-3-(5-fluoro-2-(3-oxopiperazin-1-yl)pyrimidin-4-yl)-3-azabicyclo[3.1.0]hexan-6-yl)ethyl)-3-(pyridin-3-yl)acrylamide]
	1 to 29 µM	CC1(OC(=O)N2C[C@@H]3[C@@H](CNC(=O)/C=C/c4cccnc4)[C@@H]3C2)COC1 [Example 238, (1R,5S,6s)-3-methyloxetan-3-yl 6-(((E)-3-(pyridin-3-yl)acrylamido)methyl)-3-azabicyclo[3.1.0]hexane-3-carboxylate]
0.01 to 0.49 µM		O=C(COc1cccnc1)NCC[C@@H]1[C@H]2CN(c3nc(Cl)ncc3F)C[C@@H]12 [Example 219, N-(2-((1R,5S,6s)-3-(2-chloro-5-fluoropyrimidin-4-yl)-3-azabicyclo[3.1.0]hexan-6-yl)ethyl)-2-(pyridin-3-yloxy)acetamide]
0.01 to 0.49 µM		O=C(NCC[C@@H]1[C@H]2CN(c3ccc(F)cc3)C[C@@H]12)c1cc2ccncc2o1 [Example 196, N-(2-((1R,5S,6s)-3-(4-fluorophenyl)-3-azabicyclo[3.1.0]hexan-6-yl)ethyl)furo[2,3-c]pyridine-2-carboxamide]
	1 to 29 µM	CC(C)(C)OC(=O)N1C[C@@H]2[C@@H](CNC(=O)c3cc4ccncc4o3)[C@@H]2C1 [Example 235, (1R,5S,6s)-tert-butyl 6-((furo[2,3-c]pyridine-2-carboxamido)methyl)-3-azabicyclo[3.1.0]hexane-3-carboxylate]
0.01 to 0.49 µM		Cc1cc(N2C[C@@H]3[C@@H](CCNC(=O)/C=C/c4cccnc4)[C@@H]3C2)cc(C)n1 [Example 307, (E)-N-(2-((1R,5S,6s)-3-(2,6-dimethylpyridin-4-yl)-3-azabicyclo[3.1.0]hexan-6-yl)ethyl)-3-(pyridin-3-yl)acrylamide]
	0.01 to 0.49 µM	Nc1ccc(/C=C/C(=O)NCC[C@@H]2[C@H]3CN(c4ccccc4)C[C@@H]23)cn1 [Example 192, (E)-3-(6-aminopyridin-3-yl)-N-(2-((1R,5S,6s)-3-phenyl-3-azabicyclo[3.1.0]hexan-6-yl)ethyl)acrylamide]
0.01 to 0.49 µM		O=C(/C=C/c1cccnc1)NCC[C@@H]1[C@H]2CN(CCc3ccccc3)C[C@@H]12 [Example 295, (E)-N-(2-((1R,5S,6s)-3-phenethyl-3-azabicyclo[3.1.0]hexan-6-yl)ethyl)-3-(pyridin-3-yl)acrylamide]
< 0.01 µM		CNc1ncc(F)c(N2C[C@@H]3[C@@H](CCNC(=O)/C=C/c4cccnc4)[C@@H]3C2)n1 [Example 327, (E)-N-(2-((1R,5S,6s)-3-(5-fluoro-2-(methylamino)pyrimidin-4-yl)-3-azabicyclo[3.1.0]hexan-6-yl)ethyl)-3-(pyridin-3-yl)acrylamide]
